In assay [1] the test system is mixture of double-stranded DNA oligonucleotides AAATTATATTAT (SEQ ID NO:1) and GGACTAGTCG (SEQ ID NO:4). The assay is described as follows: Capillary electrophoresis competitive binding study. Particulars: AAATTATATTAT dodecamer versus GGACTAGTCG decamer. The text has this: (§1) Capillary electrophoresis was used to study of ligand-DNA binding (see: (i) Hamdan, I. I.; Skellern, G. G.; and Waigh, R. D. “Separation of pd(GC)12 from pd(AT)12 by free solution capillary electrophoresis”, J. Cromatogr. A. 806, 165-168 (1998); (ii) Hamdan, I. I.; Skellern, G. G.; and Waigh, R. D. “Use of capillary electrophoresis in the study of ligand-DNA interactions”, Nucleic Acids Research 26, 3053-3058 (1998); (iii) Hamdan, I. I.; Skellern, G. G.; and Waigh, R. D. “Ligand binding to oligonucleotides” Methods in Molecular Biology, Vol. 163, “Capillary Electrophoresis of Nucleic acids”, Vol 2, pages 379-391, K. R. Mitchelson and J. Cheng Eds., Humana Press, New Jersey, (2000)).
(§2) Typically, ligand binding results in a change in migration time of the DNA and sometimes a change in peak shape.
(§3) The following are shown in FIGS. 1-6: • (a) the experimental conditions, including the DNA sequence(s); • (b) the result of sequential addition of ligand; and • (c) the structure of the ligand being investigated. Key to FIGS. 1 to 6: • r0=electropherogram in the absence of drug • rX=(where X is 0.5, 1, 2, 3 or 4) electropherogram in the presence of drug, where the drug:DNA ratio (in terms of concentration) is X:1
This ratio corresponds to the binding ratio. […]

Assay [2] has as its system NFκB protein-DNA complexes. Briefly: NFκB DNA-binding assay (gel shift) with macrophage nuclear extracts. Particulars: 1 μL of a 1 mM solution, final volume 10 μL; nuclear protein from macrophages exposed to LPS. It is filed as biochemical, Murine. On the procedure:
Murine macrophages (obtained and cultured as described in Cell. Signal. 11(7), 491 (1999), hereinafter referred to as “Reference 1”, the disclosures of which document are hereby incorporated by reference) were exposed to vehicle (see Reference 1) or 1 μg/mL lipopolysaccharide (LPS; the active component of gram-negative endotoxin and a strong activator of the Nuclear Factor kappa B (NFκB) pathway; the particular LPS being obtained from Salmonella minnesota) for 1 hour and nuclear extracts prepared by standard procedures (see Brit. J. Pharmacol. 134, 393 (2001), hereinafter referred to as “Reference 2”, the disclosures of which document are hereby incorporated by reference).
Aliquots of compounds (1 μL of a 1 mM solution) were incubated with 1 μL (0.035 pmol) of a ^32P-labelled 20 bp double-stranded DNA oligonucleotide (representing the consensus binding sequence for NFκB proteins (see Reference 2 and Brit. J. Pharmacol. 134, 1629-1638 (2001), the disclosures of which latter document are hereby incorporated by reference)) for 30 min at room temperature. […] The formation of NFκB protein-DNA complexes and potential inhibition of complex formation in the presence of the above compounds was detected by autoradiography. […]

For assay [3], the system named is MS1 sequence (radio-labelled DNA, SEQ ID NO:6). The assay is described as follows: DNA footprinting (DNase I). It is filed as binding. Particulars: concentration of 0.03 μM. On the procedure: DNA footprinting is a well-established technique in which a section of radio-labelled DNA (SEQ ID NO:6) is incubated with a chemical or biological cleaving agent, in the presence and absence of a putative binding ligand. Regions of ligand binding will show as blanks in the ‘ladder’. Knowing the DNA sequence, the binding sites can then be deduced, from the location of these blanks. The sequence shown in FIGS. 7 and 8 is MS1, which contains all possible four-base-pair binding sites. The procedure used in the footprinting experiments was analogous to that described in J. Med. Chem. 43, 3257 (2000), the disclosures of which document are hereby incorporated by reference. In an analogous manner to the procedure described in J. Med. Chem. 43, 3257 (2000), the MS1 sequence was labelled at the 3′-end with [α-^32P]dATP using reverse transcriptase. The agent used to cleave the radio-labelled DNA was DNase I. Bases that fall within the “footprint” of a compound are indicated by XX . . . XX underneath the sequence. The binding domain that has been confirmed by capillary electrophoresis is indicated by XX. XX.

For assay [4], the system named is double-stranded DNA decamer CGACTAGTCG (SEQ ID NO:3). Briefly: Capillary electrophoresis ligand-DNA binding study. Particulars: drug to DNA ratio up to 4:1.
From the text: as §2, §3
(§4) This ratio corresponds to the binding ratio.

Assay [5] has as its system double-stranded DNA oligonucleotide CCACTAGTGG (SEQ ID NO:5). The assay is described as follows: Capillary electrophoresis ligand-DNA binding study. Particulars: with CCACTAGTGG (SEQ ID NO:5).
From the text: as §1, §2, §3, §4

Turning to “N-[3-(Dimethylamino)propyl]-2-({[4-({[4-(formylamino)-1-methyl-1H-pyrrol-2-yl]carbonyl}amino)-1-methyl-1H-pyrrol-2-yl]carbonyl}amino)-5-isopropyl-1,3-thiazole-4-carboxamide [Example 3]”, the “relative affinity in competitive binding” value in assay [1] is “greater affinity for the decamer ACTA sequence”. Also, the “effect on LPS-stimulated NFκB-DNA binding activity” value in assay [2] was “appeared to inhibit”. For the same substance, the “footprint on MS1 sequence” value in assay [3] is “binding to only one site on the MS1 sequence”. In addition, in assay [4], the “affinity for the sequence” value is “strong affinity”. In addition, in assay [5], the binding result is “identical with that achieved with the sequence in FIG. 3”.
